{
  "source": "patent US20100003217A1",
  "about": "“Compounds and Pharmaceutical Compositions for the Treatment of Viral Infections” (priority 2008, published 2010)",
  "key": {"[1]": {"molecular_target": "CYP2A6 (Homo sapiens, UniProt P11509)", "sequence (P11509 whole entry)": "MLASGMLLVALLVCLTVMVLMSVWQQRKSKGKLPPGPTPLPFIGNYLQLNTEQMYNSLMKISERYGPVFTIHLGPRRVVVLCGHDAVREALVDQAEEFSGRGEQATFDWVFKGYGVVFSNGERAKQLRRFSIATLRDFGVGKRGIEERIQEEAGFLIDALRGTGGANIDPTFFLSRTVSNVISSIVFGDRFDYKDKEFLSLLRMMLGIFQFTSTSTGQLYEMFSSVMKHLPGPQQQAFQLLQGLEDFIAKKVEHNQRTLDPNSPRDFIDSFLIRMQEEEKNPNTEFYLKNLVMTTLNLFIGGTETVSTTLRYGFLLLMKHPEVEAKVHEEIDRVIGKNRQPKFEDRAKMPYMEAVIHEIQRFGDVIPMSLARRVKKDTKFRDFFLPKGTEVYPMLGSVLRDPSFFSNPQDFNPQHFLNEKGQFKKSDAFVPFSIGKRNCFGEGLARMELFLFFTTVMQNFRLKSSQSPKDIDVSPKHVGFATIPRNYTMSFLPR", "assay": "Incubation with human recombinant CYP450 supersomes, 2A6", "assay_type": "in vitro ADME", "settings": "CYP450 2A6 supersomes, 60 min, 10 μM, average of two experiments", "method": "(§1) Supersomes—Incubations were conducted in a final volume of 0.1 mL reaction buffer (50-100 mM potassium phosphate, pH 7.4 or 100 mM Tris-HCL, pH 7.4) according to protocol provided with each CYP450 supersome. Each reaction contained […] of CYP450 supersome, 1.3 mM NADP^+, 3.3 mM glucose-6-phosphate, 0.4 U/mL glucose-6-phosphate dehydrogenase, 3.3 mM MgCl2 and 10 μM Compound 1. Following incubation for 60 min at 37° C., 100 μL of stop solution (acetonitrile:methanol; 1:1) was added and samples centrifuged for 10 min at 10,000×g. The supernatant was then dried and reconstituted in 10 mM potassium phosphate, pH 5, further transferred to an HPLC glass vial and analyzed by HPLC-UV (described above)."}, "[2]": {"tested_on": "wild-type HCV replicon (GS4.1 cells)", "assay": "microbe, parasite or virus in culture", "method": "(§2) 1. […] Huh-7 cells were seeded into column 1 of each plate at a similar density.\n(§3) 2. […] Eight additional 3-fold serial dilutions of each compound were prepared from the 2× stock in assay medium. Final drug concentrations ranged from 100 to 0.015 μM.\n(§4) 3. […] This setup was run in duplicate in each 96-well plate.\n(§5) 4. Cells were incubated with inhibitors for three days at 37° C./5% CO2.\n(§6) 1. After three days of drug treatment, media was removed from the plates via gentle tapping and the cells were fixed to the plates with 100 μL/well of 1:1 acetone:methanol.\n(§7) 2. After one minute of incubation at room temperature, plates were washed three times with 100 μL/well of ELISA wash solution and then blocked with 150 μL/well of 10% FBS-TNE.\n(§8) 3. After a one hour incubation at room temperature, plates were washed three times with 100 μL/well of ELISA wash solution, and then 100 μL/well of mouse anti-hepatitis C […] mAb (1 mg/mL stock diluted 1:1,500 in 10% FBS-TNE) was added.\n(§9) 4. Following 2 hours of incubation at 37° C., plates were washed three times with 100 μL/well of ELISA wash solution, and then 100 μL/well of HRP-goat anti-mouse antibody (diluted 1:4,000 in 10% FBS-TNE) was added.\n(§10) 4. After a one hour incubation period at 37° C., each plate was washed three times with 100 μL/well of ELISA wash solution. Color development was then initiated with 100 μL/well of OPD solution.\n(§11) 5. After a 30 minute incubation period in the dark at room temperature, reactions were stopped by adding 100 μL of 2NH2SO4 to each well.\n(§12) 6. The absorbance was measured at 490 nm on a Victor^3 V 1420 multilabel counter (Perkin Elmer). The percent inhibition of HCV replicon replication was calculated for each drug using an average of the duplicate wells."}, "[3]": {"tested_on": "S282T HCV replicon (184R-D2 cells)", "assay": "microbe, parasite or virus in culture", "method": "as §2, §3, §4, §5, §6, §7, §8, §9, §10, §11, §12"}, "[4]": {"molecular_target": "CYP2C9 (Homo sapiens, UniProt P11712)", "sequence (P11712 whole entry)": "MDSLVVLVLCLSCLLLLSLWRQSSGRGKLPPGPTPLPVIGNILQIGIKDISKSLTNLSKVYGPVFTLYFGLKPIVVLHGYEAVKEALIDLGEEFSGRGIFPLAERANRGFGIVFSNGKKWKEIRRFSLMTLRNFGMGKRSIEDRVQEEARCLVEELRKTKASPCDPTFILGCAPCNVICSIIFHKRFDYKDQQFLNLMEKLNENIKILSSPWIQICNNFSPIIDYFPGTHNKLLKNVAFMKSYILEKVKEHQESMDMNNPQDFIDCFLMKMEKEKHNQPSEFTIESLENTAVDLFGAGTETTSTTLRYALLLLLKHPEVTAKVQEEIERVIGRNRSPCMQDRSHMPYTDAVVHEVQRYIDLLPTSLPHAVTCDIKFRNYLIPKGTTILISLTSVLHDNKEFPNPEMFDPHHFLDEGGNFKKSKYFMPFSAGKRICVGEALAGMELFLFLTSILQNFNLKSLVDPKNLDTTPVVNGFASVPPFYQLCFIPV", "assay": "Incubation with human recombinant CYP450 supersomes, 2C9", "assay_type": "in vitro ADME", "settings": "CYP450 2C9 supersomes, 60 min, 10 μM, average of two experiments", "method": "as §1"}, "[5]": {"molecular_target": "CYP2C8 (Homo sapiens, UniProt P10632)", "sequence (P10632 whole entry)": "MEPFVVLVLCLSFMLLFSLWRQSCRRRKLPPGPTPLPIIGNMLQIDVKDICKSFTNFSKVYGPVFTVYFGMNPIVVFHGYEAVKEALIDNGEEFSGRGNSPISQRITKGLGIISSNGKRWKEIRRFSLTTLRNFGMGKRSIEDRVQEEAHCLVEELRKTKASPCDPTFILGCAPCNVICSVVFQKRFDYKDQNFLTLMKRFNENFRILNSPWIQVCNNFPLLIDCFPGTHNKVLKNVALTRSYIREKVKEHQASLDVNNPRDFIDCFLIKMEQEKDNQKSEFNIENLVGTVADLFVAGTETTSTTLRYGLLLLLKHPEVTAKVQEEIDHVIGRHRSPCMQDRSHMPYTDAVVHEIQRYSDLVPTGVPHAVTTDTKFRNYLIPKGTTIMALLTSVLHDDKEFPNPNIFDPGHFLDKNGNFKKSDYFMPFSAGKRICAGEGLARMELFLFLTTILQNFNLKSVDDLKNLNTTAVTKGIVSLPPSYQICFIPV", "assay": "Incubation with human recombinant CYP450 supersomes, 2C8", "assay_type": "in vitro ADME", "settings": "CYP450 2C8 supersomes, 60 min, 10 μM, average of two experiments", "method": "as §1"}, "[6]": {"molecular_target": "CYP3A4 (Homo sapiens, UniProt P08684)", "sequence (P08684 whole entry)": "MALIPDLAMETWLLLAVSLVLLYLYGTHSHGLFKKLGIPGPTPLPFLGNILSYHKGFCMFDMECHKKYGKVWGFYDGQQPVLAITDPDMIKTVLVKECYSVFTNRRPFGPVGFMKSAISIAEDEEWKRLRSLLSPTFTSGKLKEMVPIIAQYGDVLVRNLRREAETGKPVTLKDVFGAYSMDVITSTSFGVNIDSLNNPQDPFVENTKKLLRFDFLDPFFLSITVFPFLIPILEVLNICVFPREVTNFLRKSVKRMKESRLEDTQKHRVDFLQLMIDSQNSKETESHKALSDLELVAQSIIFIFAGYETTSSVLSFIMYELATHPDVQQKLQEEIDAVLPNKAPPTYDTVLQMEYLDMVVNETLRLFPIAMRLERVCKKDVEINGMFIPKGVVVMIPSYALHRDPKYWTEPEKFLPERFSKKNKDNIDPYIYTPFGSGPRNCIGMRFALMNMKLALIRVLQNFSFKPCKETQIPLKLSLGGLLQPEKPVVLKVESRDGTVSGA", "assay": "Incubation with human recombinant CYP450 supersomes, 3A4", "assay_type": "in vitro ADME", "settings": "CYP450 3A4 supersomes, 60 min, 10 μM, average of two experiments", "method": "as §1"}, "[7]": {"tested_on": "rat primary hepatocytes", "assay": "In vitro intracellular half-life of 2′-C-methyl guanosine-5′-triphosphate (Compound 7) in rat primary hepatocytes", "assay_type": "in vitro ADME", "settings": "for Decay of Compound 7: level in cellular extracts: rat hepatocytes Rs458, after 24 h incubation with 10 μM [^14C]-Compound 1", "method": "(§13) Primary hepatocytes were incubated with 10 μM [^14C]-Compound 1 ([…]) or [^14C]-2′-C-methyl guanosine (127 DPM/μmol) for 24 hours at which time the incubation medium was removed and the cell monolayer carefully washed two times with warm (37° C.) PBS and placed back in culture with drug-free medium. At selected times up to 24 hours, the medium was removed and the cell monolayers carefully washed two times with ice-cold PBS. Following the last wash, all PBS was carefully removed and the cell monolayers processed and extracted as previously described. […]"}, "[8]": {"assay": "In vitro intracellular half-life of 2′-C-methyl guanosine-5′-triphosphate (Compound 7) in rat primary hepatocytes", "assay_type": "in vitro ADME", "settings": "primary hepatocytes (cellular extracts)", "method": "as §13"}, "[9]": {"assay": "Metabolite profile in rat plasma", "assay_type": "in vivo, male Sprague-Dawley rats", "settings": "rat terminal plasma, IV (2, 6, 24 h) and PO (6 h)", "method": "Pooled terminal rat plasma samples were prepared for Group 1A, Group 1C, and Groups 2A-C. The pools were prepared by combining 1 mL of plasma from each of the four animals. Subsamples (2 mL each) of the pooled samples were transferred to 15-mL conical centrifuge tubes for extraction. To each subsample, 6 mL of methanol were added and each mixture was vortexed vigorously and then centrifuged at 5700×g for 15 minutes. The supernatant (extract 1) was transferred to a 15-mL tube. The pellets were further extracted with methanol (2 mL). Each sample was vortexed thoroughly to ensure mixing. The samples were centrifuged as described above. The supernatant (extract 2) was removed. The total volume of each extract was recorded. […] All extracts and reconstituted extracts were analyzed by LSC. Reconstituted extracts containing sufficient radioactivity were analyzed by HPLC.\nTerminal plasma samples were pooled, extracted and prepared for HPLC analysis as described above. For Group 1, terminal plasma samples (2, 6, and 24 h) were pooled and analyzed by HPLC as described above. For Group 2, only the 6-h sample had sufficient radioactivity for analysis. […]"}, "[10]": {"settings": "rat hepatocytes, [^14C]-Compound 1 removed"}},
  "data": [
    {"smiles": "CC(C)(CO)C(=O)SCCOP(=O)(NCc1ccccc1)OC[C@H]1O[C@@H](n2cnc3c(=O)[nH]c(N)nc32)[C@](C)(O)[C@@H]1O", "note": "(mixture of isomers) [Compound 1, 3-hydroxy-2,2-dimethyl-thiopropionic acid S-(2-{[(2R,3R,4R,5R)-5-(2-amino-6-oxo-1,6-dihydro-purin-9-yl)-3,4-dihydroxy-4-methyl-tetrahydro-furan-2-ylmethoxy]-benzylamino-phosphoryloxy}-ethyl) ester]", "values": [
      {"measurement": "% Residual Compound 1", "setting": "[1]", "result": 105, "unit": "%"},
      {"measurement": "Fold shift from wild-type", "setting": "[2]; GS4.1 (wild-type), EC50 reference", "result": 1, "unit": "fold"},
      {"measurement": "EC50", "setting": "[2]; Hepatitis C virus", "result": 0.3, "unit": "µM"},
      {"measurement": "Fold shift from wild-type", "setting": "[3]; 184R-D2 (S282T), EC50 in resistant line divided by EC50 in wild-type cells", "result": 130, "unit": "fold"},
      {"measurement": "EC50", "setting": "[3]; Hepatitis C virus", "result": "39 ± 10", "unit": "µM"},
      {"measurement": "% Residual Compound 1", "setting": "[4]", "result": 109, "unit": "%"},
      {"measurement": "% Residual Compound 1", "setting": "[5]", "result": 105, "unit": "%"},
      {"measurement": "% Residual Compound 1", "setting": "[6]", "result": 62, "unit": "%"}
    ]},
    {"smiles": "C[C@@]1(O)[C@H](O)[C@@H](COP(=O)(O)OP(=O)(O)OP(=O)(O)O)O[C@H]1n1cnc2c(=O)[nH]c(N)nc21", "note": "[Compound 7, [(2R)-2-methyl-β-D-ribofuranosyl]guanine 5′-triphosphate]", "values": [
      {"measurement": "Decay of Compound 7: level in cellular extracts", "setting": "[7]; decay time 0 h", "result": 932, "unit": "pmol/million cells"},
      {"measurement": "Decay of Compound 7: level in cellular extracts", "setting": "[7]; decay time 1 h", "result": 954, "unit": "pmol/million cells"},
      {"measurement": "Decay of Compound 7: level in cellular extracts", "setting": "[7]; decay time 4 h", "result": 811, "unit": "pmol/million cells"},
      {"measurement": "Decay of Compound 7: level in cellular extracts", "setting": "[7]; decay time 8 h", "result": 545, "unit": "pmol/million cells"},
      {"measurement": "Decay of Compound 7: level in cellular extracts", "setting": "[7]; decay time 24 h", "result": 83.0, "unit": "pmol/million cells"},
      {"measurement": "Compound 7 levels after 24 hours without drug", "setting": "[7]; [10]", "result": 83, "unit": "pmol/million cells"},
      {"measurement": "reduction of Compound 7 levels after 24 hours without drug", "setting": "[7]; [10]", "result": 91, "unit": "%"},
      {"measurement": "Compound 7 levels at time zero", "setting": "[7]; rat hepatocytes, after 24 h with 10 μM [^14C]-Compound 1", "result": 932, "unit": "pmol/million cells"},
      {"measurement": "half-life at 10 μM", "setting": "[8]; rat hepatocytes Rs458, after 24 h incubation with 10 μM [^14C]-Compound 1, linear regression", "result": 6.61, "unit": "h"},
      {"measurement": "half-life at 10 μM", "setting": "[8]; rat hepatocytes, following [^14C]-Compound 1", "result": 6.61, "unit": "h"}
    ]},
    {"smiles": "C[C@@]1(O)[C@H](O)[C@@H](CO)O[C@H]1n1cnc2c(=O)[nH]c(N)nc21", "note": "[2′-C-methyl guanosine, 9-(2-C-methyl-β-D-ribofuranosyl)guanine, reference compound]", "values": [
      {"measurement": "Plasma metabolites detected", "setting": "[9]", "result": "only detectable metabolite"}
    ]}
  ]
}
